Results: ChEMBL document CHEMBL5291721, “A preclinical secondary pharmacology resource illuminates target-adverse drug reaction associations of marketed drugs” (Nat Commun, 2023)

How the values were obtained:
[1] = target: 5-hydroxytryptamine receptor 2B (Homo sapiens, UniProt P41595); format: functional, cell-based
Thromboxane A2 receptor [2] = target: T1, Thromboxane A2 receptor (Homo sapiens, UniProt P21731); format: functional, cell-based
T1 sequence (P21731 whole entry): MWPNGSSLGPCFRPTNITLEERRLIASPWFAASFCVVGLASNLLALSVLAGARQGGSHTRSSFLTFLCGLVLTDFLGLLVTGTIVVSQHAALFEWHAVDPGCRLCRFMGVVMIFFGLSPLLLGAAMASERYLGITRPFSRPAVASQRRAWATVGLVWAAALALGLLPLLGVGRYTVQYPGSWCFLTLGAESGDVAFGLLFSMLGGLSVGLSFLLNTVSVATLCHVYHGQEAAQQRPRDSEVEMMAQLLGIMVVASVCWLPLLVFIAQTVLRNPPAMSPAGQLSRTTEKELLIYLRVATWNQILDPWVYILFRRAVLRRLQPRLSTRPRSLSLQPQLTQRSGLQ

Histamine H3 receptor = Histamine H3 receptor (Homo sapiens, UniProt Q9Y5N1)
Histamine H3 receptor, sequence (Q9Y5N1 whole entry): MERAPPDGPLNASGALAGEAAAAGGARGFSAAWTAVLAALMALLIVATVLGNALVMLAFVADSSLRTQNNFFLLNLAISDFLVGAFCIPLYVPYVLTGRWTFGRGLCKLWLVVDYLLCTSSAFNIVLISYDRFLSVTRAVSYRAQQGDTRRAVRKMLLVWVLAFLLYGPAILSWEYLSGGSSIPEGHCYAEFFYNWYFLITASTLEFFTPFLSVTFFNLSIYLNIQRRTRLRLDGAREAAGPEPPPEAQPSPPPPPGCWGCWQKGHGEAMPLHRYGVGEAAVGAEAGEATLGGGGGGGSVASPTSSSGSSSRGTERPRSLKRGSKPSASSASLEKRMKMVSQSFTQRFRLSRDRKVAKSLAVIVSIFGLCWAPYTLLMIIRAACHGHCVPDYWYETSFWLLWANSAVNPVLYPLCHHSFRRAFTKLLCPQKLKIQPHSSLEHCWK

[3] = target: T2, Muscarinic acetylcholine receptor M2 (Homo sapiens, UniProt P08172)
T2 sequence (P08172 whole entry): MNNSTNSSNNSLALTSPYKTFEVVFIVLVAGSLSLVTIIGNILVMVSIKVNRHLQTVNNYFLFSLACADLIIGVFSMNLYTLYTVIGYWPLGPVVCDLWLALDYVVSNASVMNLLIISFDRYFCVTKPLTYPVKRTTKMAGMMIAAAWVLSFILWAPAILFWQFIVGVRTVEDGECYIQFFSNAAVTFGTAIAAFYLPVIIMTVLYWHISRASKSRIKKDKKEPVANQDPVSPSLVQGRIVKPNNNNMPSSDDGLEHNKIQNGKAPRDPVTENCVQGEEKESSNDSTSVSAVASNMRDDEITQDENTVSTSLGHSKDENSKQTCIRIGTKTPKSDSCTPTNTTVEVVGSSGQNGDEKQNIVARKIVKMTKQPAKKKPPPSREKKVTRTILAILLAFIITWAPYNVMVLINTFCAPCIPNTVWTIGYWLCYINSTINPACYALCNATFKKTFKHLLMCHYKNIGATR

[4] = target: T3, Alpha-2A adrenergic receptor (Homo sapiens, UniProt P08913)
T3 sequence (P08913 whole entry): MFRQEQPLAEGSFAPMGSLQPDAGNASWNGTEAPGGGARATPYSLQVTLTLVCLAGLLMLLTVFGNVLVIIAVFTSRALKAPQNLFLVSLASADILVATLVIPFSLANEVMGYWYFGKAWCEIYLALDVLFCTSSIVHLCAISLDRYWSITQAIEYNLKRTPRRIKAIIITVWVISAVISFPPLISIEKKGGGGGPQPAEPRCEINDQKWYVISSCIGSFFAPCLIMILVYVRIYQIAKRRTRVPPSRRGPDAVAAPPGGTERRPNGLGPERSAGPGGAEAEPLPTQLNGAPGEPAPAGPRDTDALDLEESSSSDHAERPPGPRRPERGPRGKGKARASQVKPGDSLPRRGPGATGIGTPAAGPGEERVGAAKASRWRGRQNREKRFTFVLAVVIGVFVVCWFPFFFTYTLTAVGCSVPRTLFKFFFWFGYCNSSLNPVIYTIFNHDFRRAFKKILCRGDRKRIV

[5] = target: cGMP-inhibited 3',5'-cyclic phosphodiesterase 3A (Homo sapiens, UniProt Q14432); format: functional
cGMP-inhibited 3',5'-cyclic phosphodiesterase 3A, sequence (Q14432 whole entry): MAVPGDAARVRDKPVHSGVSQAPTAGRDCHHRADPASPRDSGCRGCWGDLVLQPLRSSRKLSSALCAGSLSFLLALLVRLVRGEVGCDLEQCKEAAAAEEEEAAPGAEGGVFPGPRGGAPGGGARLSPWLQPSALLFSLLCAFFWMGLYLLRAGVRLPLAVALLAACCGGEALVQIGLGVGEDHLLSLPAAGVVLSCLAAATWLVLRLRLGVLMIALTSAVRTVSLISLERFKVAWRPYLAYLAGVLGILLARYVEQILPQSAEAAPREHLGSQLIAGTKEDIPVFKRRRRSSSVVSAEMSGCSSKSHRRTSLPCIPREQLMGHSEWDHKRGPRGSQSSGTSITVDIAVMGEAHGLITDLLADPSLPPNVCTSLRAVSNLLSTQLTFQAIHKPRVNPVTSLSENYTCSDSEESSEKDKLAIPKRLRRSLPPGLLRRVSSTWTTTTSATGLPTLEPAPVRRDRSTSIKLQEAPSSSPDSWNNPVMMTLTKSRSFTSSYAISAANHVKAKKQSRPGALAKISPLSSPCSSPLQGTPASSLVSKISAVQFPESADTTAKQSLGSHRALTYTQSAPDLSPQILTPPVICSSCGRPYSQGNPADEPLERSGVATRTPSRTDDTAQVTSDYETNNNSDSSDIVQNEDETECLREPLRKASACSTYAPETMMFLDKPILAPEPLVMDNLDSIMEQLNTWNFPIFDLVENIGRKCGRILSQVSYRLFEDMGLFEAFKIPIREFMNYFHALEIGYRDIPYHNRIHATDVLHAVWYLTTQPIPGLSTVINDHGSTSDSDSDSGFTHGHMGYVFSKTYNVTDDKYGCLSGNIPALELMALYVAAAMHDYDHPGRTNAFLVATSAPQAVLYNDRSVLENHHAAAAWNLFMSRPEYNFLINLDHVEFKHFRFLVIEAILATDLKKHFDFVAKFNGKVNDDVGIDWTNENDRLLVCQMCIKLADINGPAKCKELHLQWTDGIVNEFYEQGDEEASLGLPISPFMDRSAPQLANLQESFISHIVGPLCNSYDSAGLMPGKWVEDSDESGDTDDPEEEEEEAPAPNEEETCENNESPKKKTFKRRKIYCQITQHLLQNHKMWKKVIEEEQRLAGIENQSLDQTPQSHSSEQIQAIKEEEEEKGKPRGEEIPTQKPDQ

Prothrombin = Prothrombin (Homo sapiens, UniProt P00734); format: functional
[6] = target: 3',5'-cyclic-AMP phosphodiesterase 4A (Homo sapiens, UniProt P27815); format: functional
3',5'-cyclic-AMP phosphodiesterase 4A, sequence (P27815 whole entry): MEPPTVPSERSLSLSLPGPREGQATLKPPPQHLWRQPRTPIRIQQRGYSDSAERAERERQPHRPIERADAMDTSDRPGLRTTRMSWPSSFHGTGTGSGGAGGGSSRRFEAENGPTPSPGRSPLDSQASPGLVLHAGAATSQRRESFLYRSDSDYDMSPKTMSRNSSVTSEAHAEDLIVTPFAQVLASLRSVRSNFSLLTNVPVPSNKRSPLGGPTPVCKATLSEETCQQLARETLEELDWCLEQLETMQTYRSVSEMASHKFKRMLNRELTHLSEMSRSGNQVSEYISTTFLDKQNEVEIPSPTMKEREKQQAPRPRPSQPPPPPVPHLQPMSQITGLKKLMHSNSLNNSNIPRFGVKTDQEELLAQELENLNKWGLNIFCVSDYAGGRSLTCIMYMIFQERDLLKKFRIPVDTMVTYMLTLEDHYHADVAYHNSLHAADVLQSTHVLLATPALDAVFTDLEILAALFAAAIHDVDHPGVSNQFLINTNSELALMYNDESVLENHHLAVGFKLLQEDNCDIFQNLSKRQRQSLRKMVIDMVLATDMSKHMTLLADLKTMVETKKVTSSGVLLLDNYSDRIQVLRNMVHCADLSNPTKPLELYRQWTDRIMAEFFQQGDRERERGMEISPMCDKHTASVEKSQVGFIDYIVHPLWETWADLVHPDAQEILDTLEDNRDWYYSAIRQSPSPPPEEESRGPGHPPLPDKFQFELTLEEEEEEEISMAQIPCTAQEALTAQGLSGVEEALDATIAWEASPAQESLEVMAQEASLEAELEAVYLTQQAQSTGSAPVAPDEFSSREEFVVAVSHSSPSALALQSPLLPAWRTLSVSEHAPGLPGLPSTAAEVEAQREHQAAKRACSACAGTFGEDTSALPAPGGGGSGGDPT

[7] = target: T4, 5-hydroxytryptamine receptor 1A (Homo sapiens, UniProt P08908)
T4 sequence (P08908 whole entry): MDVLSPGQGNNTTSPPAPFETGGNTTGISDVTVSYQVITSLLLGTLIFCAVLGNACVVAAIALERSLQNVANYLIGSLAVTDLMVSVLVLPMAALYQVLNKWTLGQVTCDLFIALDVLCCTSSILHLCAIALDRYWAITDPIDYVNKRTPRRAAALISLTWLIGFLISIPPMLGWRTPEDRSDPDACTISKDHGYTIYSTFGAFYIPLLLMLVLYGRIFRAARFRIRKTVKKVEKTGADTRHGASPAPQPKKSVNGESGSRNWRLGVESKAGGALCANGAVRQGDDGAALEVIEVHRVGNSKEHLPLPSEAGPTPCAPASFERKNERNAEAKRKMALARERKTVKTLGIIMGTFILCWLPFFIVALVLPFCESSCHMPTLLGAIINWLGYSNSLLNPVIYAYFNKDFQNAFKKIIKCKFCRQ

[8] = target: T5, Amine oxidase [flavin-containing] A (Homo sapiens, UniProt P21397); format: functional
T5 sequence (P21397 whole entry): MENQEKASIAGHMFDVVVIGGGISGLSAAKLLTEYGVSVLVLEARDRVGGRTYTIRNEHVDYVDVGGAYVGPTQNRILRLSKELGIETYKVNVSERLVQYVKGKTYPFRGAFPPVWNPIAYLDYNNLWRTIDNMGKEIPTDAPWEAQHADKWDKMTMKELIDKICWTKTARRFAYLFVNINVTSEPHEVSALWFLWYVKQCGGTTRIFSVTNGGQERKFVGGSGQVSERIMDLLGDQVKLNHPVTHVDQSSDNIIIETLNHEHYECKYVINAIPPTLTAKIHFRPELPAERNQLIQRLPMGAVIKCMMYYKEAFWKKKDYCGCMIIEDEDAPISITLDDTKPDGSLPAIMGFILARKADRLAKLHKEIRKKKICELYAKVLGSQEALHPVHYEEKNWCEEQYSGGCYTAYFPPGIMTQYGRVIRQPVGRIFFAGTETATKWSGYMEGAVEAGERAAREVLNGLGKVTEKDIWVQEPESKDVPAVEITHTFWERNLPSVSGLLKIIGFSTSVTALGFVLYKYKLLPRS

Acetylcholinesterase = Acetylcholinesterase (Homo sapiens, UniProt P22303); format: functional
Acetylcholinesterase, sequence (P22303 whole entry): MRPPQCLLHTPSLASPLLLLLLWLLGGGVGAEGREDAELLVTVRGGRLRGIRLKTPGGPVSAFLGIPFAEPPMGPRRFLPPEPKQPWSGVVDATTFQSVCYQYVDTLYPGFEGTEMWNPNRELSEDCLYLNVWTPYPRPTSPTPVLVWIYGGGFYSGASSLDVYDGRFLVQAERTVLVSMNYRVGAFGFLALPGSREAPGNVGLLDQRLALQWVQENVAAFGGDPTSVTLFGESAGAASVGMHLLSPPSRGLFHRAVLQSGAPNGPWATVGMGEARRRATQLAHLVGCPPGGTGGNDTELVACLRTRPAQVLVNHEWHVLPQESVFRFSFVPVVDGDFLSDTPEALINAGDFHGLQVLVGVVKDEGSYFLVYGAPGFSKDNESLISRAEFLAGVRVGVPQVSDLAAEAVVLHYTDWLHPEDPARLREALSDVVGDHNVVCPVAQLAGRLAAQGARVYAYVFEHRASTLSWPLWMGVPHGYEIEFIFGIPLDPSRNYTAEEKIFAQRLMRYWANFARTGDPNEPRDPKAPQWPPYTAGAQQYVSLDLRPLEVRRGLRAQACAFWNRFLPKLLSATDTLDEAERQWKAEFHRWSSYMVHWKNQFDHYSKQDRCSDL

Thromboxane A2 receptor [9] = target: T1, Thromboxane A2 receptor; format: functional, cell-based; remark: listed apart in the source
[10] = target: Sodium-dependent dopamine transporter (Homo sapiens, UniProt Q01959)
Sodium-dependent dopamine transporter, sequence (Q01959 whole entry): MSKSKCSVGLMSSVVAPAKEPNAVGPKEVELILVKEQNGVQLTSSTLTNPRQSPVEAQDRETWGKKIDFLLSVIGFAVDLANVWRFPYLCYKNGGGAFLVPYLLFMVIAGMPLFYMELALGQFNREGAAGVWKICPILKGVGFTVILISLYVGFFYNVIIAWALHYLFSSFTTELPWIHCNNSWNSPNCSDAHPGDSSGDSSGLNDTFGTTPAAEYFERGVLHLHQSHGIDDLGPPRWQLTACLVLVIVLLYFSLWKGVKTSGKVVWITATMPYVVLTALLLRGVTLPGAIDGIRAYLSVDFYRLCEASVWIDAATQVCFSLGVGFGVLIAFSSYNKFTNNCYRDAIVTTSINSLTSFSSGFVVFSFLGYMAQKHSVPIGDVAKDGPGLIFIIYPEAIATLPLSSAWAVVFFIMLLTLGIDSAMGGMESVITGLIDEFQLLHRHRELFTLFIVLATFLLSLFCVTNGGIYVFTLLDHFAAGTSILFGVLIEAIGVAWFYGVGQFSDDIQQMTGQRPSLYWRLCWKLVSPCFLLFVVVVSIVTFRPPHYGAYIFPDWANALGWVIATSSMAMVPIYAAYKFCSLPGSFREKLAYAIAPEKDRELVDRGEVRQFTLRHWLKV

[11] = target: Voltage-gated inwardly rectifying potassium channel KCNH2 (Homo sapiens, UniProt Q12809); format: functional
Voltage-gated inwardly rectifying potassium channel KCNH2, sequence (Q12809 whole entry): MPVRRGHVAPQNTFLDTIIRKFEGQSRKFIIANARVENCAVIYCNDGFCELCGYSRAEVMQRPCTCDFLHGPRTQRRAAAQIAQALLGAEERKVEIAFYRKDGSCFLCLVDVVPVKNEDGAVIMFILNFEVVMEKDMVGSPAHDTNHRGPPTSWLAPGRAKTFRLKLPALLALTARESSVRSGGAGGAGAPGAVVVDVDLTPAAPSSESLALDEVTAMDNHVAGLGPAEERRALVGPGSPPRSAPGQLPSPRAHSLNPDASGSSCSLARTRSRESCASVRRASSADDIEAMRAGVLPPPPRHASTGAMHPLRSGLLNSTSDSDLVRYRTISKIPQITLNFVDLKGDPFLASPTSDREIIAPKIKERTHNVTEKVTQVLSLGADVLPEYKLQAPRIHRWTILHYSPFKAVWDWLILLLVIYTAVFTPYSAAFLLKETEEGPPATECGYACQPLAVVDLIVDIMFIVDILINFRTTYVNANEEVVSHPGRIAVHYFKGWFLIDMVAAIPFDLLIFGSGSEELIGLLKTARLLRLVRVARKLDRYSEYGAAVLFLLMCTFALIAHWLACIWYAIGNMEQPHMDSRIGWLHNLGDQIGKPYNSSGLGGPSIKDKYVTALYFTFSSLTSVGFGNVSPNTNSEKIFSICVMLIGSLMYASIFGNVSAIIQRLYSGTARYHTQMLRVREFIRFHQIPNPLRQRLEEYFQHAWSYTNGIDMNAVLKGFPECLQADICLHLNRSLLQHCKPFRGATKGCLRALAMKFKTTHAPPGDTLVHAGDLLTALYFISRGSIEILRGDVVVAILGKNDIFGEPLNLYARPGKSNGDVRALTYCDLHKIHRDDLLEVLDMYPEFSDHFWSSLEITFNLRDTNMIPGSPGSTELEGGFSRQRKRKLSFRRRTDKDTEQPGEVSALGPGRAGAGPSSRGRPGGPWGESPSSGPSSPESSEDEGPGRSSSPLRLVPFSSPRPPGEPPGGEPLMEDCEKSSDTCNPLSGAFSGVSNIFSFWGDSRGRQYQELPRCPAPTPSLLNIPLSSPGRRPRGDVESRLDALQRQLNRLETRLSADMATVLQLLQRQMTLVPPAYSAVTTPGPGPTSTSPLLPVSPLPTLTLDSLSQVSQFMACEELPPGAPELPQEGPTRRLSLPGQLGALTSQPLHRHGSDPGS
Note: assay procedure not described here.

SMILES | AC50 [1] | AC50 (Thromboxane A2 receptor [2]) | AC50 (Histamine H3 receptor) | AC50 [3] | AC50 [4] | AC50 [5] | AC50 (Prothrombin) | AC50 [6] | AC50 [7] | AC50 [8] | AC50 (Acetylcholinesterase) | AC50 (Thromboxane A2 receptor [9]) | AC50 [10] | AC50 [11]
COC(=O)[C@H]1[C@H]2C[C@@H]3c4[nH]c5cc(OC)ccc5c4CCN3C[C@H]2C[C@@H](OC(=O)c2cc(OC)c(OC)c(OC)c2)[C@@H]1OC [RESERPINE] | > 30 µM | > 30 µM | > 30 µM | > 30 µM | > 30 µM | > 3 µM | > 30 µM | > 3 µM | > 30 µM | > 30 µM | > 30 µM | > 30 µM | 29.3 µM | 1.46 µM
Clc1ccc(C(Cn2ccnc2)OCc2csc3c(Cl)cccc23)c(Cl)c1 (stereo not drawn) [SERTACONAZOLE] | > 30 µM | 14.5 µM | 23.3 µM | 6.26 µM | 3.8 µM | > 30 µM | > 30 µM | 17.7 µM | 12.4 µM | > 30 µM | > 30 µM | > 30 µM | 1.88 µM | 1.7 µM
CC(OCCN1CCCCCC1)(c1ccccc1)c1ccc(Cl)cc1 (stereo not drawn) [SETASTINE] | > 30 µM | 8.8 µM | 23.2 µM | 0.393 µM | 7.86 µM | > 30 µM | > 30 µM | > 30 µM | 9.59 µM | > 30 µM | 9.61 µM | > 30 µM | 2.98 µM | 0.14 µM
O=S1(=O)CCN(CN2CCS(=O)(=O)NC2)CN1 [TAUROLIDINE] | > 30 µM | > 30 µM | > 30 µM | > 30 µM | > 30 µM | > 30 µM | > 30 µM | > 30 µM | > 30 µM | > 30 µM | > 30 µM | > 30 µM | > 30 µM | > 30 µM
CCCSc1nc(N[C@@H]2C[C@H]2c2ccc(F)c(F)c2)c2nnn([C@@H]3C[C@H](OCCO)[C@@H](O)[C@H]3O)c2n1 [TICAGRELOR] | > 30 µM | 6.38 µM | > 30 µM | > 30 µM | > 30 µM | 17 µM | > 30 µM | 21.3 µM | > 30 µM | > 30 µM | > 30 µM | > 30 µM | 0.425 µM | 27 µM
c1ccc2c(SC3=NCCN3)c[nH]c2c1 [TINAZOLINE] | > 30 µM | > 30 µM | > 30 µM | > 30 µM | 0.0098 µM | > 30 µM | > 30 µM | > 30 µM | 0.19 µM | 15.9 µM | > 30 µM | > 30 µM | > 30 µM | > 30 µM
Cc1ccc(C(=O)C(C)CN2CCCCC2)cc1 (stereo not drawn) [TOLPERISONE] | > 30 µM | > 30 µM | 4.74 µM | 3.7 µM | > 30 µM | > 30 µM | > 30 µM | > 30 µM | > 30 µM | > 30 µM | > 30 µM | > 30 µM | > 30 µM | > 30 µM
